For data set [1] the following is noted: cited from earlier work.
Data set [2] is described as follows: Drug release measurements from coated silicon wafers, UV-Vis. Format: physicochemical. The procedure: Drug release measurements: The coated silicon wafers were added into the wells of 96 well-plate and immersed in PBS buffer (200 μL) was added to each well. At day 1 and day 7, the solution was collected and the drug concentration was measured using UV-Vis spectroscopy and standard curves prepared using pure bioactive agents. The released solution was diluted to 1 mL using PBS before the measurements.

The conditions of data set [3]: cited from earlier work. The source holds these as a separate data set.
Setting [4] is: day 1, coated silicon wafer in PBS.
Setting [5] is: day 7, coated silicon wafer in PBS.

Where only a bound is given, the exact number is not on record here.

As to `CO[C@H]1/C=C/O[C@@]2(C)Oc3c(C)c(O)c4c(O)c(c(/C=N/N5CCN(C)CC5)c(O)c4c3C2=O)NC(=O)/C(C)=C\C=C\[C@H](C)[C@H](O)[C@@H](C)[C@@H](O)[C@@H](C)[C@H](OC(C)=O)[C@@H]1C` [Rifampicin], the “Water solubility” value in data set [1] was 0.0413 mg/mL.
Consider `CC(=O)O[C@H]1C(=O)[C@@]2(C)[C@H]([C@H](OC(=O)c3ccccc3)[C@]3(O)C[C@H](OC(=O)[C@H](O)[C@@H](NC(=O)c4ccccc4)c4ccccc4)C(C)=C1C3(C)C)[C@]1(OC(C)=O)CO[C@@H]1C[C@@H]2O` [Paclitaxel], for which the “concentration of eluted drug” value in data set [2] (setting [4]) is recorded as 1.3 ppm (microgram/mL); in data set [2] (setting [5]), 1.4 ppm (microgram/mL).
As for `CC(=O)O[C@@]12CO[C@@H]1C[C@H](O)[C@@]1(C)C(=O)[C@H](O)C3=C(C)[C@@H](OC(=O)[C@H](O)[C@@H](NC(=O)OC(C)(C)C)c4ccccc4)C[C@@](O)([C@@H](OC(=O)c4ccccc4)[C@H]21)C3(C)C` [Docetaxel], the “concentration of eluted drug” value is listed as 12.5 ppm (microgram/mL) in data set [2] (setting [4]) and 13.7 ppm (microgram/mL) in data set [2] (setting [5]). Besides, the “Net charge at pH 7.4” value in data set [3] is “Neutral”. For the same molecule, in data set [1], the “Water solubility” value is listed as less than 0.01 mg/mL.
On to Penicillin, for which, in data set [3], the “Net charge at pH 7.4” value is on record as “Neutral”. Moreover, the “Water solubility” value in data set [1] is greater than 30 mg/mL.
Consider `NC[C@H]1O[C@H](O[C@H]2[C@H](O)[C@@H](O[C@H]3O[C@H](CO)[C@@H](O)[C@H](N)[C@H]3O)[C@H](N)C[C@@H]2N)[C@H](N)C[C@@H]1O` [Tobramycin], for which, in data set [3], the “Net charge at pH 7.4” value is “Neutral”. The “Water solubility” value in data set [1] is on record as 53.7 mg/mL.
Take Gentamicin: the “Net charge at pH 7.4” value in data set [3] is “Neutral”.

Source of the values: patent publication US20230132202A1, “Polymeric Binder and High Molecular Weight Polymer Antifouling Compositions” (The University of British Columbia, priority 2020, published 2023).
